# Source: patent US5731286A, “Cyclic neurokinin A antagonists” (Merrell Pharmaceuticals, Inc., priority 1997, dated 1998)
# Test system: rat urinary bladder
# Experiment: In situ rat urinary bladder preparation, NKA-induced bladder contraction
# Format: in vivo
# Procedure: FIG. 6. […] Continuous tracing shown for each animal.
# Rats, (female Sprague-Dawley, 150-200 g) were anesthetized with ketamine HCl (100 mg/kg i.p.) supplemented with urethane (1.2 g/kg i.p.). […] A needle was inserted into the apex of the bladder dome and saline was perfused through the bladder at a rate of 100 μl per minute. Bladder outflow was collected via a polyethylene cannula inserted into the urethra. Bladder contractions were monitored through a flow pressure transducer connected in series with the perfusion system. Test compounds were applied onto the bladder dome in 40-100 μl of saline or saline containing a minimum of DMSO. […] Antagonist was similarly applied onto the bladder 5 min before a repeated application of NKA. […] Amplitude (force) of contraction and 1-min time intervals were recorded continuously for each animal.
substance,measurement,setting,value
neurokinin A [NKA],Effect on bladder contraction when applied onto the dome of the exposed bladder,"anesthetized rats, 10 μg topical",sustained tonic contraction and an increase in frequency
same,Threshold concentration for contraction,"applied onto bladder dome, anesthetized rats",approximately 10 μg
same,Tachyphylaxis on repeated application,repeated application of 10 μg,did not result in any tachyphylaxis
